Values of other authors as cited in patent US9090623B2, “Compound JK12A and preparation thereof” (LIANYUNGANG JINKANG HEXIN PHARMACEUTICAL CO., LTD., priority 2012, dated 2015).

Tested on: HeLa S3 cells
Conditions: reported in Org. Lett. 2008, 10, 489-491; cited from earlier work

COC(=O)c1ccc(N2CC3CNC(=O)C2(C(=O)OC)N3C)cc1 (stereo not shown) [Aplaminal]
cytotoxicity against HeLa S3 cells IC50: 0.51 µg/mL
